{
  "source": "the supplement of paper PMC10307832",
  "assay_in_all_cases": "relative viability (nuclei count vs DMSO), 5 days (fraction); higher = more cells survive",
  "key": {"201T": {"system": "201T", "summary_of_the_method": "(§1)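 Lung cancer cell lines were seeded in 1536-well plates and dosed by pin tool the next day, with either a single drug or a fixed anchor-drug dose combined with five library-drug doses (not always all listed) spaced in √10 steps. Five days later, one step fixed the cells and stained their nuclei (final 0.05% Triton X-100, 1% formaldehyde, 1 ug/ml Hoechst), and nuclei were counted on 4× images. Relative viability is the nuclei count in treated wells divided by the count in vehicle wells, and each value is the median of duplicate plates.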"}, "BEN": {"system": "BEN", "summary_of_the_method": "as §1"}, "CAL-12T": {"system": "CAL-12T", "summary_of_the_method": "as §1"}, "COR-L 105": {"system": "COR-L 105", "summary_of_the_method": "as §1"}, "H3255": {"system": "H3255", "summary_of_the_method": "as §1"}, "HARA": {"system": "HARA", "summary_of_the_method": "as §1"}, "HCC-15": {"system": "HCC-15", "summary_of_the_method": "as §1"}, "HCC-827": {"system": "HCC-827", "summary_of_the_method": "as §1"}, "LC-2-ad": {"system": "LC-2-ad", "summary_of_the_method": "as §1"}, "LCLC-103H": {"system": "LCLC-103H", "summary_of_the_method": "as §1"}, "LK-2": {"system": "LK-2", "summary_of_the_method": "as §1"}, "LU99A": {"system": "LU99A", "summary_of_the_method": "as §1"}, "LXF-289": {"system": "LXF-289", "summary_of_the_method": "as §1"}, "NCI-H1437": {"system": "NCI-H1437", "summary_of_the_method": "as §1"}, "NCI-H1651": {"system": "NCI-H1651", "summary_of_the_method": "as §1"}, "NCI-H1792": {"system": "NCI-H1792", "summary_of_the_method": "as §1"}, "NCI-H2085": {"system": "NCI-H2085", "summary_of_the_method": "as §1"}, "NCI-H2228": {"system": "NCI-H2228", "summary_of_the_method": "as §1"}, "NCI-H23": {"system": "NCI-H23", "summary_of_the_method": "as §1"}, "NCI-H2405": {"system": "NCI-H2405", "summary_of_the_method": "as §1"}, "NCI-H322M": {"system": "NCI-H322M", "summary_of_the_method": "as §1"}, "RERF-LC-KJ": {"system": "RERF-LC-KJ", "summary_of_the_method": "as §1"}, "UMC-11": {"system": "UMC-11", "summary_of_the_method": "as §1"}},
  "data": [
    {"smiles": "CCCCCCCCCCCC1=C(O)C(=O)C=C(O)C1=O", "note": "[Embelin] + C[C@]1(O)C[C@@H](c2nc(-c3ccc4ccc(-c5ccccc5)nc4c3)c3c(N)nccn32)C1 [Linsitinib] (partner 1 µM)", "values": [
      {"measurement": "relative viability", "setting": "201T; first compound 0.08 µM", "result": 1.06},
      {"measurement": "relative viability", "setting": "201T; first compound 0.8 µM", "result": 1.1},
      {"measurement": "relative viability", "setting": "201T; first compound 2.53 µM", "result": 1.09},
      {"measurement": "relative viability", "setting": "201T; first compound 8 µM", "result": 1.01},
      {"measurement": "relative viability", "setting": "BEN; first compound 0.08 µM", "result": 0.976},
      {"measurement": "relative viability", "setting": "BEN; first compound 0.8 µM", "result": 1.25},
      {"measurement": "relative viability", "setting": "BEN; first compound 2.53 µM", "result": 1.09},
      {"measurement": "relative viability", "setting": "BEN; first compound 8 µM", "result": 0.898},
      {"measurement": "relative viability", "setting": "CAL-12T; first compound 0.08 µM", "result": 0.783},
      {"measurement": "relative viability", "setting": "CAL-12T; first compound 0.8 µM", "result": 0.915},
      {"measurement": "relative viability", "setting": "CAL-12T; first compound 2.53 µM", "result": 0.749},
      {"measurement": "relative viability", "setting": "CAL-12T; first compound 8 µM", "result": 0.831},
      {"measurement": "relative viability", "setting": "COR-L 105; first compound 0.08 µM", "result": 1.02},
      {"measurement": "relative viability", "setting": "COR-L 105; first compound 0.8 µM", "result": 1.33},
      {"measurement": "relative viability", "setting": "COR-L 105; first compound 2.53 µM", "result": 0.88},
      {"measurement": "relative viability", "setting": "COR-L 105; first compound 8 µM", "result": 0.874},
      {"measurement": "relative viability", "setting": "H3255; first compound 0.08 µM", "result": 1},
      {"measurement": "relative viability", "setting": "H3255; first compound 0.8 µM", "result": 1.23},
      {"measurement": "relative viability", "setting": "H3255; first compound 2.53 µM", "result": 0.931},
      {"measurement": "relative viability", "setting": "H3255; first compound 8 µM", "result": 0.922},
      {"measurement": "relative viability", "setting": "HARA; first compound 0.08 µM", "result": 0.972},
      {"measurement": "relative viability", "setting": "HARA; first compound 0.8 µM", "result": 0.914},
      {"measurement": "relative viability", "setting": "HARA; first compound 2.53 µM", "result": 0.996},
      {"measurement": "relative viability", "setting": "HARA; first compound 8 µM", "result": 1.16},
      {"measurement": "relative viability", "setting": "HCC-15; first compound 0.08 µM", "result": 0.922},
      {"measurement": "relative viability", "setting": "HCC-15; first compound 0.8 µM", "result": 0.895},
      {"measurement": "relative viability", "setting": "HCC-15; first compound 2.53 µM", "result": 0.996},
      {"measurement": "relative viability", "setting": "HCC-15; first compound 8 µM", "result": 0.905},
      {"measurement": "relative viability", "setting": "HCC-827; first compound 0.08 µM", "result": 0.997},
      {"measurement": "relative viability", "setting": "HCC-827; first compound 0.8 µM", "result": 0.949},
      {"measurement": "relative viability", "setting": "HCC-827; first compound 2.53 µM", "result": 0.992},
      {"measurement": "relative viability", "setting": "HCC-827; first compound 8 µM", "result": 1.01},
      {"measurement": "relative viability", "setting": "LC-2-ad; first compound 0.08 µM", "result": 0.822},
      {"measurement": "relative viability", "setting": "LC-2-ad; first compound 0.8 µM", "result": 0.891},
      {"measurement": "relative viability", "setting": "LC-2-ad; first compound 2.53 µM", "result": 0.526},
      {"measurement": "relative viability", "setting": "LC-2-ad; first compound 8 µM", "result": 0.913},
      {"measurement": "relative viability", "setting": "LCLC-103H; first compound 0.08 µM", "result": 1.03},
      {"measurement": "relative viability", "setting": "LCLC-103H; first compound 0.8 µM", "result": 1.11},
      {"measurement": "relative viability", "setting": "LCLC-103H; first compound 2.53 µM", "result": 1.1},
      {"measurement": "relative viability", "setting": "LCLC-103H; first compound 8 µM", "result": 1.03},
      {"measurement": "relative viability", "setting": "LK-2; first compound 0.08 µM", "result": 0.685},
      {"measurement": "relative viability", "setting": "LK-2; first compound 0.8 µM", "result": 0.525},
      {"measurement": "relative viability", "setting": "LK-2; first compound 2.53 µM", "result": 0.805},
      {"measurement": "relative viability", "setting": "LK-2; first compound 8 µM", "result": 0.547},
      {"measurement": "relative viability", "setting": "LU99A; first compound 0.08 µM", "result": 0.537},
      {"measurement": "relative viability", "setting": "LU99A; first compound 0.8 µM", "result": 0.618},
      {"measurement": "relative viability", "setting": "LU99A; first compound 2.53 µM", "result": 0.552},
      {"measurement": "relative viability", "setting": "LU99A; first compound 8 µM", "result": 0.472},
      {"measurement": "relative viability", "setting": "LXF-289; first compound 0.08 µM", "result": 0.991},
      {"measurement": "relative viability", "setting": "LXF-289; first compound 0.8 µM", "result": 0.957},
      {"measurement": "relative viability", "setting": "LXF-289; first compound 2.53 µM", "result": 1},
      {"measurement": "relative viability", "setting": "LXF-289; first compound 8 µM", "result": 1.01},
      {"measurement": "relative viability", "setting": "NCI-H1437; first compound 0.08 µM", "result": 1.01},
      {"measurement": "relative viability", "setting": "NCI-H1437; first compound 0.8 µM", "result": 1.1},
      {"measurement": "relative viability", "setting": "NCI-H1437; first compound 2.53 µM", "result": 1.24},
      {"measurement": "relative viability", "setting": "NCI-H1437; first compound 8 µM", "result": 0.76},
      {"measurement": "relative viability", "setting": "NCI-H1651; first compound 0.08 µM", "result": 0.955},
      {"measurement": "relative viability", "setting": "NCI-H1651; first compound 0.8 µM", "result": 1.1},
      {"measurement": "relative viability", "setting": "NCI-H1651; first compound 2.53 µM", "result": 1.04},
      {"measurement": "relative viability", "setting": "NCI-H1651; first compound 8 µM", "result": 0.878},
      {"measurement": "relative viability", "setting": "NCI-H1792; first compound 0.08 µM", "result": 0.589},
      {"measurement": "relative viability", "setting": "NCI-H1792; first compound 0.8 µM", "result": 0.607},
      {"measurement": "relative viability", "setting": "NCI-H1792; first compound 2.53 µM", "result": 0.72},
      {"measurement": "relative viability", "setting": "NCI-H1792; first compound 8 µM", "result": 0.434},
      {"measurement": "relative viability", "setting": "NCI-H2085; first compound 0.08 µM", "result": 0.909},
      {"measurement": "relative viability", "setting": "NCI-H2085; first compound 0.8 µM", "result": 1.02},
      {"measurement": "relative viability", "setting": "NCI-H2085; first compound 2.53 µM", "result": 0.972},
      {"measurement": "relative viability", "setting": "NCI-H2085; first compound 8 µM", "result": 1.04},
      {"measurement": "relative viability", "setting": "NCI-H2228; first compound 0.08 µM", "result": 0.636},
      {"measurement": "relative viability", "setting": "NCI-H2228; first compound 0.8 µM", "result": 0.781},
      {"measurement": "relative viability", "setting": "NCI-H2228; first compound 2.53 µM", "result": 1.09},
      {"measurement": "relative viability", "setting": "NCI-H2228; first compound 8 µM", "result": 0.59},
      {"measurement": "relative viability", "setting": "NCI-H23; first compound 0.08 µM", "result": 0.548},
      {"measurement": "relative viability", "setting": "NCI-H23; first compound 0.8 µM", "result": 0.547},
      {"measurement": "relative viability", "setting": "NCI-H23; first compound 2.53 µM", "result": 0.609},
      {"measurement": "relative viability", "setting": "NCI-H23; first compound 8 µM", "result": 0.652},
      {"measurement": "relative viability", "setting": "NCI-H2405; first compound 0.08 µM", "result": 0.978},
      {"measurement": "relative viability", "setting": "NCI-H2405; first compound 0.8 µM", "result": 1.16},
      {"measurement": "relative viability", "setting": "NCI-H2405; first compound 2.53 µM", "result": 0.973},
      {"measurement": "relative viability", "setting": "NCI-H2405; first compound 8 µM", "result": 0.92},
      {"measurement": "relative viability", "setting": "NCI-H322M; first compound 0.08 µM", "result": 0.936},
      {"measurement": "relative viability", "setting": "NCI-H322M; first compound 0.8 µM", "result": 1.08},
      {"measurement": "relative viability", "setting": "NCI-H322M; first compound 2.53 µM", "result": 1.1},
      {"measurement": "relative viability", "setting": "NCI-H322M; first compound 8 µM", "result": 0.856},
      {"measurement": "relative viability", "setting": "RERF-LC-KJ; first compound 0.08 µM", "result": 0.905},
      {"measurement": "relative viability", "setting": "RERF-LC-KJ; first compound 0.8 µM", "result": 0.89},
      {"measurement": "relative viability", "setting": "RERF-LC-KJ; first compound 2.53 µM", "result": 0.961},
      {"measurement": "relative viability", "setting": "RERF-LC-KJ; first compound 8 µM", "result": 0.908},
      {"measurement": "relative viability", "setting": "UMC-11; first compound 0.08 µM", "result": 1.03},
      {"measurement": "relative viability", "setting": "UMC-11; first compound 0.8 µM", "result": 1.08},
      {"measurement": "relative viability", "setting": "UMC-11; first compound 2.53 µM", "result": 1.11},
      {"measurement": "relative viability", "setting": "UMC-11; first compound 8 µM", "result": 0.984}
    ]}
  ]
}
